Experiments:
[1] = test system: cumulus-oocyte complexes (cumulus expansion); test: Cumulus expansion assay in vitro; assay type: cell-based, mice; conditions: in competition with PGE2
Description: Folliculogenesis was induced in immature female mice (strain: CD1 (ICR) from Charles River) at an age of 14-18 days by a single dose (intraperitoneal) of 10 I.U. of PMSG (Pregnant Mare Serum Gonadotropin; Sigma G-4877, lot 68H0909). 47-50 hours after the injection, the ovaries were removed and the cumulus-oocyte complexes were removed. The cumulus complex is not yet expanded at this stage.
The cumulus-oocyte complexes were then incubated with prostaglandin E2 (PGE2) (0.3 μM), vehicle control (ethanol) or test substances for 20-24 hours. Medium: alpha-MEM medium with 0.1 mM IBMX, pyruvates (0.23 mM) glutamines (2 mM), pen/strep 100 IU/ml pen. and 100 μg/ml strep. and HSA (8 mg/ml). Cumulus expansion was then established through the division into four stages (according to Vanderhyden et al. Dev Biol. 1990 August; 140(2):307-317).

[2] = target: T1, EP2 subtype of the human PGE2 receptor (Homo sapiens, UniProt P43116); test: cellular cAMP agonism assay; assay type: cell-based; conditions: without PGE2
T1 construct: host or cells: cells in a cell culture plate
T1 sequence (P43116 whole entry): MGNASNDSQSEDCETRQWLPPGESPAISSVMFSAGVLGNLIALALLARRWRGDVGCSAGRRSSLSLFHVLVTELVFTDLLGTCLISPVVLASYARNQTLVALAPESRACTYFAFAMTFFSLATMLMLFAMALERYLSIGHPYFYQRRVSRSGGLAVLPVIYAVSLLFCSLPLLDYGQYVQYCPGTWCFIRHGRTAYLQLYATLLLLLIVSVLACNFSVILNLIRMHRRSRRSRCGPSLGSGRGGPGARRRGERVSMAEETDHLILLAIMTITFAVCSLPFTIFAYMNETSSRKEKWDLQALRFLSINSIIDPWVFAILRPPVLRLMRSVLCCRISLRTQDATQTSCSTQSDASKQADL
Description: The binding of PGE2 to the EP2 subtype of the human PGE2 receptor induces activation of membrane-associated adenylate cyclases and leads to the formation of cAMP. In the presence of the phosphodiesterase inhibitor IBMX, cAMP which has accumulated due to this stimulation and been released by cell lysis is employed in a competitive detection method. In this assay, the cAMP in the lysate competes with cAMP-XL665 for binding of an Eu cryptate-labelled anti-cAMP antibody.
The two signals are measured in a suitable measuring instrument with a time lag, i.e. after the background fluorescence has declined.
The substance solutions (0.75 μl) introduced into an into an assay plate and 30% DMSO were dissolved in 16 μl of a KRSB+IBMX stimulation solution (1× Krebs-Ringer Bicarbonate Buffer; Sigma-Aldrich # K-4002; including 750 μM 3-isobutyl-1-methylxanthine Sigma-Aldrich # I-7018), and then 15 μl thereof were transferred into a media-free cell culture plate which has been washed with KRSB shortly beforehand.
After incubation at room temperature (RT; volume: ˜15 μl) for 60 minutes, the reaction was then stopped by adding 5 μl of lysis buffer and incubated at RT for a further 20 min (volume: ˜20 μl). The cell lysate was then transferred into a measuring plate and measured in accordance with the manufacturer's instructions (cyclic AMP kit Cisbio International # 62AMPPEC).

Row | SMILES | suppression of the expansion of the cumulus ([1]; 100-200 μM) | effect in the cellular agonism test [2] | suppression of cumulus expansion ([1]; 5 μM)
1 | CC(C)Oc1ccc2c(=O)c3cc(C(=O)O)ccc3oc2c1 [AH 6809, reference compound] | approx. 30% |  | 
2 | Cc1[nH]c2c(F)ccc(C)c2c1CCNC(=O)c1cc2ccc(C(=O)NCC(N)=O)cc2[nH]1 [Example 6, 2-N-[2-(7-fluoro-2,4-dimethyl-1H-indol-3-yl)ethyl]-6-N-carbamoylmethyl-1H-indole-2,6-dicarboxamide] |  | no inhibition | approx. 67%

From patent publication US20100029599A1, “Indolylamides as modulators of the EP2 receptor” (BAYER SCHERING PHARMA AKTIENGESELLSCHAFT, priority 2008, published 2010)
